Literature values in US20170007537A1, “PHARMACEUTICAL COMPOSITIONS OF ASENAPINE” (HETERO RESEARCH FOUNDATION, priority 2014, published 2017).

Settings: when swallowed; oral tablet formulation

In the case of `CN1C[C@H]2c3ccccc3Oc3ccc(Cl)cc3[C@@H]2C1.O=C(O)/C=C\C(=O)O` (racemic) [asenapine, (3aRS,12bRS)-5-Chloro-2-methyl-2,3,3a,12b-tetrahydro-1Hdibenzo[2,3:6,7]oxepino[4,5-c]pyrrole(2Z)-2-butenedioate (1:1)], the absolute bioavailability is listed as less than 2%.
